ChEMBL document CHEMBL1150965, “Aculeoside B, a new bisdesmosidic spirostanol saponin from the underground parts of Ruscus aculeatus” (J Nat Prod, 1998)
≈ marks a conversion by molar mass, not a printed value.

System: HL-60
Assay: Cytostatic activity against human HL60 cells after 72 hrs by MTT assay
Type: functional, cell-based
Conditions: HL-60, 72 h

IC50: 0.48 µg/mL (≈ 0.476 µM)
Compound: C=C1CO[C@@]2(O[C@H]3C[C@H]4[C@@H]5CC=C6C[C@@H](O)C[C@@H](O[C@@H]7OC[C@H](O)[C@H](O)[C@H]7O[C@@H]7O[C@@H](C)[C@H](OC(C)=O)[C@@H](OC(C)=O)[C@H]7OC(C)=O)[C@]6(C)[C@H]5CC[C@]4(C)[C@H]3[C@@H]2C)[C@@H](O)[C@H]1O[C@@H]1O[C@H](C)C(=O)[C@H](O)[C@H]1O [ACULEOSIDE A]
